The subject of assay [1] is methicillin-resistant Staphylococcus aureus (MRSA). The assay is described as follows: agar dilution method, inhibitory effect on MRSA. To be noted: for MIC50: Staphylococcus aureus, read-out: Minimum inhibitory concentration (MIC50, μg/ml) MRSA. The assay is classed as cell-based. The source says: (§1) In order to determine the antibacterial activity of these new oxazolidinone-based compounds, an agar dilution method was used to test the inhibitory effect on methicillin-resistant Staphylococcus aureus (MRSA) and vancomycin-resistant Enterococcus (VRE). The bacteria inhibition effect was expressed as minimum inhibitory concentration (MIC50, μg/ml) The test results are shown in the following table.

In assay [2] the test system is vancomycin-resistant Enterococcus (VRE). Put plainly: agar dilution method, inhibitory effect on VRE. It counts as cell-based. Particulars: for MIC50: Enterococcus, read-out: Minimum inhibitory concentration (MIC50, μg/ml) VRE.
Source text: as §1
(In general: In agar dilution, organisms are placed on agar that contains the substance at set levels.)

Each structure is given as a SMILES string.

`O=C1O[C@@H](C(O)C(F)F)CN1c1ccc(-c2ccc(-c3nnn(C4CC4)n3)nc2)c(F)c1.O=P(O)(O)O` (stereo partly drawn) [compound 145, (R)-3-(3-fluoro-4-(6-(2-cyclopropyl-2H-tetrazol-5-yl)pyridin-3-yl)phenyl)-5-(1-hydroxy-2-difluoroethyl) oxazolidin-2-one phosphate]: in assay [1], the “Minimum inhibitory concentration (MIC50, μg/ml) MRSA” value is 0.6 µg/mL. For the same molecule, the “Minimum inhibitory concentration (MIC50, μg/ml) VRE” value in assay [2] is 0.5 µg/mL.

With `O=C1O[C@H](C(O)C2CC2)CN1c1ccc(-c2ccc(-c3nnn(C4CC4)n3)nc2)c(F)c1.O=P(O)(O)O` (stereo partly drawn) [compound 150, (S)-3-(3-fluoro-4-(6-(2-cyclopropyl-2H-tetrazol-5-yl)pyridin-3-yl)phenyl)-5-(1-hydroxy-1-cyclopropylmethyl) oxazolidin-2-one phosphate], the MIC50 in assay [1] and in assay [2] was 0.2 µg/mL each time.

In the case of `C=Cn1nnc(-c2ccc(-c3ccc(N4C[C@H](C(OP(=O)(O)O)C(F)F)OC4=O)cc3F)cn2)n1` (stereo partly drawn) [compound 151, (R)-3-(3-fluoro-4-(6-(2-vinyl-2H-tetrazol-5-yl)pyridin-3-yl)phenyl)-5-(1-hydroxy-2-difluoroethyl) oxazolidin-2-one phosphate], the “Minimum inhibitory concentration (MIC50, μg/ml) MRSA” value in assay [1] came out at 0.8 µg/mL. In addition, the “Minimum inhibitory concentration (MIC50, μg/ml) VRE” value in assay [2] amounted to 0.6 µg/mL.

Take `C=Cn1nnc(-c2ccc(-c3ccc(N4C[C@@H](C(O)C(F)F)OC4=O)cc3F)cn2)n1.O=P(O)(O)O` (stereo partly drawn) [compound 152, (S)-3-(3-fluoro-4-(6-(2-vinyl-2H-tetrazol-5-yl)pyridin-3-yl)phenyl)-5-(1-hydroxy-2-difluoroethyl) oxazolidin-2-one phosphate]: the “Minimum inhibitory concentration (MIC50, μg/ml) MRSA” value in assay [1] worked out at 0.3 µg/mL. In assay [2], the “Minimum inhibitory concentration (MIC50, μg/ml) VRE” value was 0.2 µg/mL.

Take `C=Cn1nnc(-c2ccc(-c3ccc(N4C[C@H](C(O)CF)OC4=O)cc3F)cn2)n1.O=P(O)(O)O` (stereo partly drawn) [compound 153, (R)-3-(3-fluoro-4-(6-(2-vinyl-2H-tetrazol-5-yl)pyridin-3-yl)phenyl)-5-(1-hydroxy-2-fluoroethyl) oxazolidin-2-one phosphate]: the figures for the MIC50 in assay [1] and in assay [2] were 0.2 µg/mL and 0.1 µg/mL, respectively.

For the molecule `C=Cn1nnc(-c2ccc(-c3ccc(N4C[C@@H](C(O)CF)OC4=O)cc3F)cn2)n1.O=P(O)(O)O` (stereo partly drawn) [compound 154, (S)-3-(3-fluoro-4-(6-(2-vinyl-2H-tetrazol-5-yl)pyridin-3-yl)phenyl)-5-(1-hydroxy-2-fluoroethyl) oxazolidin-2-one phosphate], the results for the MIC50 in assay [1] and in assay [2] were 0.4 µg/mL and 0.3 µg/mL, respectively.

In the case of `C=Cn1nnc(-c2ccc(-c3ccc(N4C[C@H](C(O)C5CC5)OC4=O)cc3F)cn2)n1.O=P(O)(O)O` (stereo partly drawn) [compound 155, (R)-3-(3-fluoro-4-(6-(2-vinyl-2H-tetrazol-5-yl)pyridin-3-yl)phenyl)-5-(1-hydroxy-1-cyclopropylmethyl) oxazolidin-2-one phosphate], the results for the MIC50 in assay [1] and in assay [2] were 0.9 µg/mL and 0.5 µg/mL, respectively.

`C=Cn1nnc(-c2ccc(-c3ccc(N4C[C@@H](C(O)C5CC5)OC4=O)cc3F)cn2)n1.O=P(O)(O)O` (stereo partly drawn) [compound 156, (S)-3-(3-fluoro-4-(6-(2-vinyl-2H-tetrazol-5-yl)pyridin-3-yl)phenyl)-5-(1-hydroxy-1-cyclopropylmethyl) oxazolidin-2-one phosphate]: the MIC50 in assay [1] and in assay [2] was 0.4 µg/mL in each case.

(Values after patent US12173020B2, “New-type oxazolidinone compounds and preparation method therefor” (priority 2019, dated 2024).)
